Experimental data as given in patent publication US11378572B2, “Therapeutic agent for immune cell migration-caused disease and method for screening same” (ZYMEDI CO., LTD., priority 2017, dated 2022).
Entries after “also recorded” stand apart in the source; their conditions may differ.

Key:
KRS = target: T1, KRS (Mus musculus, UniProt Q99MN1); assay: KRS level in plasma membrane/cytosol fractions by western blot (KRS translocation to the plasma membrane); assay type: cell-based; conditions: RAW 264.7 cells, laminin 421 1 μg/ml, 100 nM compound, 12 hours
T1 construct: KRS, which is expressed in monocytes/macrophages and usually present in the cytoplasmic domain, translocates to the plasma membrane by LN421 treatment; endogenous in cells; host or cells: RAW 264.7
Experimental: After dispensing RAW 264.7 cells (2×10^6 cells) in 100 mm dish and incubating for 18 hours, cells were treated with LN421 l g/ml in serum free DMEM media and harvested at 0 hour, 12 hour, 24 hour. Proteins of RAW 264.7 cells were separated into the cytosol and membrane fractions using ProteoExtract Subcellular Proteome Extraction Kit (Calbiotech, cat #539790). Obtained proteins were electrophoresed and transferred to PVDF membrane (Milipore) and blocked with 3% skim milk. KRS was then detected by western blot. Specifically, KRS polyclonal antibody (rabbit, Neomics, Co. Ltd. #NMS-01-0005) was added and reacted for 1 hour. Unbound antibody was removed and the membrane was added and reacted with anti-rabbit secondary antibody (ThermoFisher Scientific, #31460). After reacting with the secondary antibody, films were exposed in the dark room using ECL reagent as a substrate. […]
First, in order to determine whether various KRS inhibitor candidates could exert inhibitory effect on the KRS translocation to the plasma membrane, RAW 264.7 cells (2×10^6 cells) were dispensed in 100 mm dishes and incubated for 18 hours, followed by treatment with laminin 421 1 μg/ml in serum free DMEM, and 100 nM of each of various KRS inhibitor candidates, and cells were further incubated for 12 hours. […] Afterwards, KRS was detected by western blot, and the specific method were as described in Example 3. […]

[1] = test system: liver ischemia-reperfusion injury model; assay: Liver ischemia-reperfusion injury model; assay type: in vivo, CX3CR1-GFP mice; conditions: 100 mg/kg oral once daily, 3 days; 24 hours of reperfusion
Experimental: A liver ischemia-reperfusion injury model was prepared using CX3CR1-GFP mice to investigate the effect of inhibitors of KRS translocation to the plasma membrane on the monocyte infiltration during ischemic immune responses. Monocytes, macrophages and Kupffer's cells appear green in CX3CR1-GFP mice. Mice were orally administered with vehicle or BC-KI-00053 (100 mg/kg, dissolved in vehicle, once daily) for a total of three days beginning two days before imaging (D-2, D-1, D-0). For vehicle, corn oil:polyethylene glycol 400: Tween 80: methyl cellulose (1%)=20:30:1:49 was used. On day 3 of oral administration (D-0), triad (bile duct, hepatic artery, […]) occlusion was performed using a 6-0 suture as shown in FIG. 8a. Triad occlusion was performed for 30 minutes to induce acute inflammation, and 3 g of Eppendorf tubes were suspended from both ends of the suture. Suture was removed and the ischemic inflammation site was observed immediately after reperfusion (0 hour) and 24 hours later. At this time, blood vessels were labeled with Alexa Flour 555-bound anti-CD31 antibody for repeated imaging (identifiable as red). Two-photon microscope was used as an imaging equipment.

[2] = test system: Dahl salt-sensitive (SS) rats; assay: Dahl salt-sensitive (SS) rat on high salt diet; assay type: in vivo
Experimental: Experiments were performed using male Dahl SS rats at 9-12 weeks of age. These animals were provided by the University of Mississippi Medical Center and approved by the American Association for Accreditation of Laboratory Animal Care (AAALAC). All protocols were approved by the Institutional Animal Care and Use Committee of the University of Mississippi Medical Center. Rats were fed ad libitum, and these rats were provided with a purified AIN-76 rodent feed containing 0.4% NaCl (Dyets, Bethlehem, Pa.) after weaning. Dahl salt-sensitive (SS) rat is an animal model that rapidly develops high hypertension, proteinuria, glomerulosclerosis and renal interstitial fibrosis on high salt (HS) diet.
Dahl SS rats were anesthetized with isoflurane and telemetry transmitters (model TA11PAC40, Data Sciences International, St. Paul, Minn.) were aseptically implanted in the same manner as described above. After surgery, rats were housed in individual cages in a quiet air-conditioned room environment with a 12:12 hour light-dark cycle and it took a week to fully recover from surgery. Then, the baseline mean arterial blood pressure (MAP) was measured before the rats were placed in the metabolic cage to measure urine protein excretion. Proteinuria was measured using the Bradford method and BSA (Bio-Rad Laboratories, Hercules, Calif.) as a standard.
Rats were then randomly divided into two experimental groups: Group 1 (n=15) was treated with BC-KI-00053 (25 mg/kg daily) by gastrointestinal gavage; Group 2 (n=15) was administered by gastrointestinal gavage with the same volume (2.5 ml/kg per day) of vehicle (corn oil, polyethylene glycol 400, Tween 80 and methyl cellulose). Simultaneously with the administration of agents, feed was changed to HS feed containing 8% NaCl (Dyets, Bethlehem, Pa.) and blood pressure and proteinuria were measured at 7, 14 and 21 days after starting HS feed. At the end of the experiment, rats were anesthetized with isoflurane and blood samples were taken to measure creatinine levels. Rats were then flushed with 50 ml of 0.9% NaCl through the aorta and perfused with 20 ml of 4% paraformaldehyde. Kidneys and hearts were collected for histological evaluation.
Paraffin section preparation and evaluations of the degree of glomerular damage, cortex and medulla fibrosis were performed as described above. In addition, immunohistochemical staining (IHC) for CD68, a monocyte/macrophage marker for kidney tissue, was performed in the same manner as in Example 8.
Statistics: Each data is expressed as mean±SEM. Comparison between groups was analyzed by two-tailed test. P value p<0.05 was considered statistically significant.

T1 sequence (Q99MN1 whole entry, the tested form may be a part): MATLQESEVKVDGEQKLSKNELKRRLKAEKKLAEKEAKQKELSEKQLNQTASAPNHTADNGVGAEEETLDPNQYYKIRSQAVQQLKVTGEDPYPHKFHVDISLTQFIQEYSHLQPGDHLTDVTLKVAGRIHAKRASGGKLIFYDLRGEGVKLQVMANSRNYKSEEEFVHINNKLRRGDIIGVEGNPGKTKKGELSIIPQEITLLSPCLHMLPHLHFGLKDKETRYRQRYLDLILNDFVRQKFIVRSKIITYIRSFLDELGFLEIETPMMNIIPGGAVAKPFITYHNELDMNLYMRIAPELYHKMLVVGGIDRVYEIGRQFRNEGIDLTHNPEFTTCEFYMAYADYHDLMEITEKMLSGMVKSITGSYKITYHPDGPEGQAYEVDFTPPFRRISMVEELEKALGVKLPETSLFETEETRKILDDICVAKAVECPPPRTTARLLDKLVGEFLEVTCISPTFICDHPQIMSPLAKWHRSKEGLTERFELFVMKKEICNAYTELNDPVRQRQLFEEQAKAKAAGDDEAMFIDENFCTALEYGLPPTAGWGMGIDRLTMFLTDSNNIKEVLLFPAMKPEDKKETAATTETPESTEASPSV

## COc1ccc(CCN(Cc2ccc(C(=O)O)cc2)c2nc3cccc(F)c3s2)cc1 [BC-KI-00053, 4-({(7-fluorobenzo[d]thiazol-2-yl)[2-(4-methoxyphenyl)ethyl]amino}methyl)benzoic acid]
KRS
  level of KRS in the plasma membrane region: reversed; also recorded: significantly lowered
[1]
  monocyte/macrophage infiltration into occluded liver area: significantly reduced
[2]; 25 mg/kg daily 3 weeks
  cortical fibrosis: 6.47±0.46%
  renal medulla fibrosis: 12.33±0.78%
  renal tissue infiltration of monocytes/macrophages (CD68 IHC): significantly reduced
[2]; 25 mg/kg daily 3 weeks, Sirius red
  cardiac fibrosis: 6.63±0.94%
[2]; 25 mg/kg daily 3 weeks, score 0 to 4+
  mean glomerular injury score: 1.34±0.04
[2]; 25 mg/kg daily gavage, 3 weeks
  body weight during the study period: maintained or increased slightly
[2]; 25 mg/kg daily, after 2 weeks of treatment, HS diet
  MAP: 164.43±3.00 mmHg
[2]; 25 mg/kg daily, after one week of treatment, HS diet
  proteinuria: 302.86 ± 29.76 mg/day
[2]; 25 mg/kg daily, after two weeks of treatment, HS diet
  proteinuria: 510.64 ± 42.42 mg/day
[2]; 25 mg/kg daily, end of experiment
  plasma creatinine concentration: 0.55 ± 0.01 mg/dL
[2]; 25 mg/kg daily, end of study, HS diet
  proteinuria: 524.55 ± 44.70 mg/day
[2]; 25 mg/kg daily, study completed (21 days), HS diet
  MAP: 178.48±3.49 mmHg
[2]; baseline, before treatment
  MAP: 123.45±2.36 mmHg
  proteinuria: 113.27 ± 8.06 mg/day
[2]; baseline, before treatment, mean±SEM
  baseline body weight: 350.13 ± 9.173 g
